Assay [1] deals with AtBAN (Arabidopsis thaliana BAN) protein (Arabidopsis thaliana, UniProt Q9SEV0). The assay is classed as biochemical. The following applies: for Products formed on incubation with AtBAN protein extract: NADPH as coenzyme, 4-month old frozen protein extracts, HPLC.
Assay [2] deals with MtBAN (Medicago truncatula BAN homolog) protein. Kind of assay: Anthocyanidin reductase activity assay with recombinant MtBAN protein extract (HPLC of products). The format is biochemical. The settings on record: for Products formed on incubation with MtBAN protein extract: NADPH, 100 mM Tris-HCl pH 7.0, 30° C., 30 min, HPLC.
Assay [3] concerns anthocyanidin reductase. The assay can be described thus: Anthocyanidin reductase assay with desalted crude enzyme from barley testa. The format is biochemical, Hordeum vulgare. The following applies: 1 mM NADPH, 100 μM cyanidin, 30° C., 30 min. As for the experimental part: (§1) Lotus corniculatus, Desmodium uncinatum and Barley cv. Morex were grown in a greenhouse. Young leaves from L. corniculatus, unexpanded leaves, and young pods as well as open flowers and flower buds from D. uncinatum, and young grains from Barley were collected. Seed testas of barley grains were excised and pooled together for enzyme extraction. Mature grape fruit stored at −80° C. was treated in pH 7 100 mM Tris.HCl buffer for 30 seconds for isolating the skin for enzyme extraction.
(§2) A fresh one-gram leaf sample of L. corniculatus, one-gram testa from barley, and 9 grams of grape fruit skin, as well as two grams of flowers, 3 grams of young pods and 3 grams of young unexpanded leaves from Desmodium uncinatum, were independently ground into fine powders in liquid nitrogen. The follow buffer systems were used for enzyme extraction. Extraction buffer 1: pH 7 100 mM Tris.HCl, 10% glycerol and 2 mM 1,4-dithiothreitol; Extraction buffer 2: pH 8 50 mM phosphate buffer, 10% glycerol, 1.5% polyethyleneglycol 4000 (PEG-4000), 2 mM pH 8.0 Na-EDTA, 25 mM sodium ascorbate, 20 mM β-mecaptoenthanol, and 5 mM 1,4-dithiothreitol; Extraction buffer 3: pH 8 100 mM Tris.HCl, 10% glycerol 1.5% polyethyleneglycerol 4000 (PEG-4000), 2 mM pH 8.0 Na-EDTA, 25 mM sodium ascorbate, 80 mM β-mecaptoenthanol, and 5 mM 1,4-dithiothreitol. […]

Assay [4] addresses T1, anthocyanidin reductase (Vitis vinifera, UniProt Q5FB34).
T1 construct: 100 μM cyanidin and 50-25 μg desalted crude enzyme; from tissue; host or cells: skin of mature grape fruit
The assay can be described thus: Anthocyanidin reductase assay with desalted crude enzyme from grape fruit skin. The format is biochemical. The following applies: 1 mM NADPH, 100 μM cyanidin, 30° C., 30 min. How it is done:
as §1, §2

The subject of assay [5] is anthocyanidin reductase. The assay can be described thus: Anthocyanidin reductase assay with desalted crude enzyme from Lotus corniculatus leaves. The format is biochemical. The following applies: 1 mM NADPH, 100 μM cyanidin, 30° C., 30 min. As for the experimental part:
as §1, §2

Assay [6] concerns anthocyanidin reductase. The assay can be described thus: Anthocyanidin reductase assay with desalted crude enzyme from Desmodium uncinatum flowers, leaves and young pods. The assay is classed as biochemical. The following applies: 1 mM NADPH, 100 μM cyanidin, 30° C., 30 min. How it is done: as §1, §2
[7] abbreviates: reactions containing leucoanthocyanidins.

Chain of AtBAN (Arabidopsis thaliana BAN) protein (Q9SEV0 other isoform, or with tags, fused parts or gaps K55Q/I146L/V156I/E157D/T179K/K185E): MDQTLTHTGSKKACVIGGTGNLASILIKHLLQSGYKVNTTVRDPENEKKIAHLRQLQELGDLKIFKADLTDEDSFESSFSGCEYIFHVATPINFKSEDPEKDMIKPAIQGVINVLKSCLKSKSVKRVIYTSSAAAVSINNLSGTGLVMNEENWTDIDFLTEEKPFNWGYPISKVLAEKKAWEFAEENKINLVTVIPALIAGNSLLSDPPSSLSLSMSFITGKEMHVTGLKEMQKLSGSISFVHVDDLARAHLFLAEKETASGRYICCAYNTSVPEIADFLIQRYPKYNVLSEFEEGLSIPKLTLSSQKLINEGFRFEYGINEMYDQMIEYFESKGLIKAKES
T1 sequence (Q5FB34 whole entry R248Q): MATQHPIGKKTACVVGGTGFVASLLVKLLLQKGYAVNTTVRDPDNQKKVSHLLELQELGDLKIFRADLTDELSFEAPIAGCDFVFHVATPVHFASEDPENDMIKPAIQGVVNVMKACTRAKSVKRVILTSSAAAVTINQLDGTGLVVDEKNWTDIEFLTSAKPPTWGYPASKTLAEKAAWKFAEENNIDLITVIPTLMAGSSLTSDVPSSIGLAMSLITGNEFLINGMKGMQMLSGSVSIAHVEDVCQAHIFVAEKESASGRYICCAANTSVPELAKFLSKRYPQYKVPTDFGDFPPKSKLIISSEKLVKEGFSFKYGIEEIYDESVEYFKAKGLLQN

Take `Oc1cc(O)c2c(c1)O[C@H](c1ccc(O)c(O)c1)[C@H](O)C2` [(−)epicatechin, (−)-epicatechin]: the “Products formed on incubation with AtBAN protein extract” value in assay [1] was “does not produce (2S,3R) configuration (−) catechin or (−)epicatechin”. In addition, in assay [2], the “Products formed on incubation with MtBAN protein extract” value was “does not produce (2S,3R) configuration (−) catechin or (−)epicatechin”.
For leucoanthocyanidins, the “LAR activity with recombinant AtBAN” value in assay [1] (setting [7]) is listed as “no LAR activity was observed”. For the same compound, the “LAR activity with recombinant MtBAN” value in assay [2] (setting [7]) is “no LAR activity was observed”.
For the compound `Oc1cc(O)c2cc(O)c(-c3cc(O)c(O)c(O)c3)[o+]c2c1` [delphinidin, delphinidin chloride], in assay [1], the “Products formed on incubation with AtBAN protein extract” value is “delphinidin into gallocatechin”. In assay [2], the “Products formed on incubation with MtBAN protein extract” value is “catalyzed the reduction of delphinidin into putative gallo-catechin and epi-gallocatechin”.
Turning to `Oc1ccc(-c2[o+]c3cc(O)cc(O)c3cc2O)cc1` [pelargonidin, Pelargonidin chloride], the “Products formed on incubation with AtBAN protein extract” value in assay [1] is given as “pelargonidin into epi-alfzelechin”. Also, the “Products formed on incubation with MtBAN protein extract” value in assay [2] is “catalyzed the reduction of pelargonidin into a new compound eluting at 33.6 min”.
For the compound `Oc1cc(O)c2cc(O)c(-c3ccc(O)c(O)c3)[o+]c2c1.[Cl-]` [cyanidin, cyanidin chloride], the “Product formed by barley testa enzyme” value in the assay with anthocyanidin reductase [3] was “converted cyanidin into epicatechin”. For the same compound, the “Product formed by grape fruit skin enzyme” value on anthocyanidin reductase [4] was “converted cyanidin into epicatechin”. In addition, the “Product formed by Lotus corniculatus leaf enzyme” value in the assay on anthocyanidin reductase [5] is “converted cyanidin into epicatechin”. For the same compound, the “Products formed on incubation with AtBAN protein extract” value in assay [1] is given as “catalyze the reduction of cyanidin to epicatechin”. The “Product formed by Desmodium uncinatum flower, leaf and young pod enzyme” value in the assay on anthocyanidin reductase [6] is “converted cyanidin into epicatechin”. In assay [2], the “Products formed on incubation with MtBAN protein extract” value was “reducing cyanidin to the corresponding flavan-3-ols, catechin and epicatechin”.
As to `NC(=O)C1=CN([C@@H]2O[C@H](COP(=O)(O)OP(=O)(O)OC[C@H]3O[C@@H](n4cnc5c(N)ncnc54)[C@H](O)[C@@H]3O)[C@@H](O)[C@H]2O)C=CC1` [NADH], the “Conversion with NADH relative to the level achieved with NADPH” value in assay [2] (NADH 2 mM final concentration substituted for NADPH) is “approximately 50%”.
Regarding `Oc1cc(O)c2c(c1)O[C@H](c1ccc(O)c(O)c1)[C@@H](O)C2` [(+)-catechin], the “Products formed on incubation with AtBAN protein extract” value in assay [1] is listed as “does not produce (2S,3R) configuration (−) catechin or (−)epicatechin”. For the same compound, the “Products formed on incubation with MtBAN protein extract” value in assay [2] is listed as “does not produce (2S,3R) configuration (−) catechin or (−)epicatechin”.

(Values after patent US7709701B2, “Genetic manipulation of condensed tannins” (The Samuel Roberts Noble Foundation, priority 2004, dated 2010).)
